Experimental data: patent EP0983764A1, “PREVENTIVES FOR ISCHEMIC HEART DISEASES” (TAISHO PHARMACEUTICAL CO. LTD, priority 1997, dated 1998)
Where two headings read alike, the source gives them in different places. Marks after values point to notes of the source that are not given here.

How the values were obtained:
[1] = system: high fat-loading hamsters; assay: Antiarteriosclerotic activity in a model for the treatment of arteriosclerosis in high fat-loading hamsters; assay type: in vivo, male golden hamsters; conditions: for Degree of lipid deposition on the arterial wall: 10 weeks, aortic arch, Oil Red O; for Degree of lipid deposition on the arterial wall / Total blood cholesterol: Means ± S.E. (n=5); for Total blood cholesterol: in high fat diet for 10 weeks
Source text: As test animals were used a group of 5 male golden hamsters of 6 weeks (available from Nihon SLC K.K.) Hamsters were fed with the following high fat diet for 10 weeks to prepare a model for arteriosclerosis.
During this period, the compound of the invention was continuously administered to a medicated group, simultaneously with feeding.
After blood collection, the aortic arch was excised and the adventitia was completely stripped off under microscopic observation. The tissue after fixed with 10% neutral buffered formalin was fat-stained with an Oil Red O solution and enclosed in a glycerol-gelatin solution on a slide glass to prepare a tissue preparation.
An area of the fat-stained site (µm^2) and an area of the artery (mm^2) were measured by means of an image analysis system (Adobe Photoshop, Unitimage for the Apple Macintosh) and a ratio of both values was calculated to determine a degree of lipid deposition on the arterial wall.
(§1) A total blood cholesterol level was measured according to an enzyme method (Autosera CHO-2, Daiichi Kagaku Yakuhin K.K.) using an autoanalyzer (Hitachi 7150 type).
The drug was given in admixture with a high fat diet at the concentrations of 0.003% and of 0.03%, and a dose was calculated from the amount of feed ingested and the body weight.
Composition of a high fat diet: A feed for rats MF (available from Oriental Kobo K.K.) to which 10% coconut oil and 0.05% cholesterol were supplemented. (Results)

[2] = system: hereditary hyperlipemic WHHL rabbits; assay: Antiarteriosclerotic activity in hereditary hyperlipemic WHHL rabbits; assay type: in vivo; conditions: for Total cholesterol in the arterial wall: 18 months, aorta; for Total cholesterol in the arterial wall / Total blood cholesterol / Intimal cholesterol deposition / Intimal surface elastin/collagen / Intimal collagen / Intimal elastin / Medium Elastin: Mean ± S.E.; for Total blood cholesterol: in feed over 18 months, at autopsy; for Intimal cholesterol deposition: plaque components in aortic arteriosclerosis; for Intimal cholesterol deposition / Intimal collagen / Intimal elastin / Medium Elastin: score, Grade 0-4; for Intimal surface elastin/collagen: ratio
Source text: The compound of the invention was continuously administered to rabbits of 2 months with hereditary hyperlipemia (WHHL rabbits, available from Kitayama RABES K.K.) over 18 months and then the rabbits were autopsied.
A portion of the aorta was fixed with 10% neutral buffered formalin and then embedded in paraffin or freeze-embedded to prepare a slice of the arterial tissue. The slice was stained with Hematoxylin and Eosin (HE), Elastic Van Gieson (EVG), Azan-Mallory, and Oil Red O. A positive rate was assessed under microscopic observation in terms of 5 scores (Grade; 0: No changes, 1: Minimum, 2: Mild, 3: Moderate, and 4: Severe) to measure changes in components in the arteriosclerotic lesion. For another portion of the aorta, cholesterol was extracted with a solution of chloroform methanol (2:1) and a total cholesterol level in the arterial wall was assayed according to an enzyme method (Cholesterol CII-Test WAKO, Wako Pure Chemical Industries, Ltd.)
A total blood cholesterol level value at the autopsy was measured according to an enzyme method (Autosera CHO-2, Daiichi Kagaku Yakuhin K.K.) using an autoanalyzer (Hitachi 7150 type).
The drug was mixed into a feed for rabbits RC-4 (Oriental Kobo K.K.) at the concentrations of 0.005% and of 0.05%, and the resulting feed was given daily between 9:00 a.m. and 11:30 a.m. while the feed was restricted to 20 g/kg of body weight.

[3] = system: cholesterol-loading rabbits; assay: Antiarteriosclerotic activity in a model for the treatment of arteriosclerosis in cholesterol-loading rabbits; assay type: in vivo, rabbits (NZW strain male); conditions: for inhibition at 3 mg/kg: Oryctolagus cuniculus
Protocol: As test animals were used a group of 10 rabbits previously fed with a 1% cholesterol-enriched feed to develop atherosclerosis (of 5 months, NZW strain male; available from Kitayama RABES K.K.)
A group of rabbits with arteriosclerosis were fed with a normal feed for rabbits RC-4 (available from Oriental Kobo K-K.) for 3 months and then adopted as a control group, while the compound of the invention was orally administered to a medicated group at 3 mg/kg once per day during this period.
After blood collection, the common carotid artery and the aorta were excised and a certain site thereof was fixed with 10% neutral buffered formalin to prepare a slice of the arterial tissue. Elastin elastic fiber-stained preparations were prepared by Elastic Van Gieson (EVG) staining, fat-stained preparations were prepared by Oil Red O staining and smooth muscle-stained preparations were prepared by anti-human α-actin antibody 1A4 staining.
A degree of intimal elastin fibrogenesis and a degree of medium lipid deposition were assessed in terms of 5 scores on elastin-positve and lipid staining-positive intensities (Grade; 0: No changes, 1: Minimum, 2: Mild, 3: Moderate, and 4: Severe). Areas of the intima (I) and of the medium (M) were measured by means of an image analysis system (Adobe Photoshop, Unitimage for the Apple Macintosh) and a ratio of both values (I/M) was calculated.
An elastin density of the fibrous cap in the intimal surface was calculated in terms of a ratio of the elastin-positive area to a given area of the intimal surface. A ratio of the α-actin-positive area to the intimal surface area at a similar site was defined as a smooth muscle density. Cholesterol was extracted from a portion of the excised aorta with a solution of chloroform : methanol (2:1) and was assayed according to an enzyme method (Cholesterol CII-Test WAKO, Free Cholesterol C-TEST WAKO, Wako Pure Chemical Industries, Ltd.)
as §1

[4] = 3 mg/kg orally once per day, 3 months, aorta
[5] = 3 mg/kg, score, Grade 0: No change to 4: Severe, Mean ± S.E.

CCCCCCCCCCCCCCSCC(=O)Nc1c(C(C)C)cccc1C(C)C [Compound of the invention]
Degree of lipid deposition on the arterial wall ([1]; 1.5 mg/kg): 217.5±40.5* µm^2/mm^2
Total blood cholesterol ([1]; 1.5 mg/kg): 372.0 ± 35.5 mg/dL
Degree of lipid deposition on the arterial wall ([1]; 15 mg/kg): 46.2± 8.6** µm^2/mm^2
Total blood cholesterol ([1]; 15 mg/kg): 231.2 ± 4.9 mg/dL
inhibition at 1.5 mg/kg ([1]; Mesocricetus auratus, 1.5 mg/kg, vs. control group, read-out: Degree of lipid deposition on the arterial wall Inhibition (%)): 67.3%
inhibition at 15 mg/kg ([1]; Mesocricetus auratus, 15 mg/kg, vs. control group, read-out: Degree of lipid deposition on the arterial wall Inhibition (%)): 93.1%
Total cholesterol in the arterial wall ([2]; 1 mg/kg): 29.3 ± 4.8 mg/g
Total blood cholesterol ([2]; 1 mg/kg): 462 ± 13 mg/dL
Intimal cholesterol deposition ([2]; 1 mg/kg): 2.6±0.2
Intimal surface elastin/collagen ([2]; 1 mg/kg): 1.26±0.24
Intimal collagen ([2]; 1 mg/kg): 3.0±0.2
Intimal elastin ([2]; 1 mg/kg): 1.5±0.2
Medium Elastin ([2]; 1 mg/kg): 0.93±0.20
Total cholesterol in the arterial wall ([2]; 10 mg/kg): 32.2 ± 2.6 mg/g
Total blood cholesterol ([2]; 10 mg/kg): 438 ± 20 mg/dL
Intimal cholesterol deposition ([2]; 10 mg/kg): 2.2±0.1
Intimal surface elastin/collagen ([2]; 10 mg/kg): 2.01±0.36
Intimal collagen ([2]; 10 mg/kg): 3.0±0.1
Intimal elastin ([2]; 10 mg/kg): 1.8±0.2
Medium Elastin ([2]; 10 mg/kg): 1.59±0.09
inhibition at 1 mg/kg ([2]; Oryctolagus cuniculus, 1 mg/kg, vs. control group, read-out: Total cholesterol in the arterial wall Inhibition (%)): 26.4%
inhibition at 10 mg/kg ([2]; Oryctolagus cuniculus, 10 mg/kg, vs. control group, read-out: Total cholesterol in the arterial wall Inhibition (%)): 19.1%
action on endothelial cells ([2]; old WHHL rabbit lesion): compacting endothelial cells
Total blood cholesterol ([3]; 3 mg/kg orally once per day, 3 months): 113.4 ± 38.6 mg/dL
Degree of intimal thickening in the common carotid artery ([3]; 3 mg/kg orally once per day, 3 months, I/M = Area of the intima/Area of the medium): 0.45±0.18 I/M
Cholesteryl ester in the arterial wall [3, 4]: 219.1 ± 18.4 mg/g
Free cholesterol in the arterial wall [3, 4]: 119.1 ± 12.2 mg/g
Total cholesterol in the arterial wall [3, 4]: 338.2 ± 29.9 mg/g
Elastin density in the intimal surface ([3]; 3 mg/kg, ratio of elastin-positive area to a given area of the intimal surface): 151±30
Density of smooth muscle in the intimal surface ([3]; 3 mg/kg, ratio of α-actin-positive area to the intimal surface area): 614±35
Degree of intimal elastin fibrogenesis [3, 5]: 1.7±0.2
Degree of medium lipid deposition [3, 5]: 1.2±0.1
Degree of intimal elastin fibrogenesis Acceleration (%) ([3]; 3 mg/kg, vs. control group): 112.5%
Density of smooth muscle in the intimal surface Acceleration (%) ([3]; 3 mg/kg, vs. control group): 18.5%
Elastin density in the intimal surface Acceleration (%) ([3]; 3 mg/kg, vs. control group): 37.0%
inhibition at 3 mg/kg ([3]; 3 mg/kg, vs. control group, read-out: Cholesteryl ester in the arterial wall Inhibition (%)): 24.1%
inhibition at 3 mg/kg ([3]; 3 mg/kg, vs. control group, read-out: Degree of intimal thickening in the common carotid artery Inhibition (%)): 55.9%
inhibition at 3 mg/kg ([3]; 3 mg/kg, vs. control group, read-out: Degree of medium lipid deposition Inhibition (%)): 47.8%
regressing a degree of intimal thickening ([3]; aortic arch, phase of the complete plaque): no action of regressing a degree of intimal thickening
